Columns and labels:
Format in all cases: cell-based
Aspergillus flavus = assay: Antifungal paper disk test, diameter of clear zone; details: for zone of inhibition at 100 µg/disc: read-out: Diameter (mm) of clear Zone A. flavus
Protocol: (§1) Sulfur compounds were tested for antifungal activity against pure cultures of Aspergillus niger and Aspergillus flavus supplied by Ward's Natural Science Ltd (St. Catharines, Ontario, Canada). They were maintained on Sabouraud Dextrose Agar.
(§2) For the test, 6 agar plugs (5 mm diameter) were cut from a 5-8 day old colony and homogenized in distilled, sterilized water (2 ml). A portion of this suspension (0.5 ml) was transferred aseptically to a Petri plate with Sabouraud Dextrose Agar (15 ml) and spread evenly over the entire surface. […] Each test compound was applied to the disks as a solution (50 mg compound/10 ml acetone). Control disks were treated with neat acetone (20 μl). Test plates with fungal homogenates and disks were incubated at 18-20° C. for 2 days. For each test four replicate plates were used. The diameter of the clear zone surrounding the disk was taken as the indicator of antifungal activity.

Aspergillus niger = assay: Antifungal paper disk test, diameter of clear zone; details: for zone of inhibition at 100 µg/disc: read-out: Diameter (mm) of clear Zone A. niger
Protocol: as §1, §2

[1] = test system: Aspergillus niger and Aspergillus flavus; assay: Antifungal activity; details: in words; for Antifungal activity: dose not given
Protocol: as §1
For the test, 6 agar plugs (5 mm diameter) were cut from a 5-8 day old colony and homogenized in distilled, sterilized water (2 ml). A portion of this suspension (0.5 ml) was transferred aseptically to a Petri plate with Sabouraud Dextrose Agar (15 ml) and spread evenly over the entire surface. Each plate was supplied with four evenly spaced paper disks (7 mm, Whatman Number 1 filter paper) containing the test compound (0, 25, 50 and 100 μg respectively). Each test compound was applied to the disks as a solution (50 mg compound/10 ml acetone). Control disks were treated with neat acetone (20 μl). Test plates with fungal homogenates and disks were incubated at 18-20° C. for 2 days. For each test four replicate plates were used. The diameter of the clear zone surrounding the disk was taken as the indicator of antifungal activity.

[2] = Aspergillus flavus, 25 μg/disk, acetone
[3] = Aspergillus niger, 25 μg/disk, acetone
[4] = Aspergillus flavus, 100 μg/disk, acetone
[5] = Aspergillus niger, 100 μg/disk, acetone
[6] = 0.25 μg/disk, Appl'n Solvent Acetone

With CS(=O)(=O)c1ccccc1SSc1ccccc1S(C)(=O)=O [[o-CH3SO2(C6H4)S]2, o-methylsulfonylphenyl disulphide] the zone of inhibition at 25 µg/disc (Aspergillus flavus; [2]) was 3 mm and the zone of inhibition at 25 µg/disc (Aspergillus niger; [3]) was 3.3 mm.
With CSSc1cccc([N+](=O)[O-])c1 [m-O2N(C6H4)SSCH3, methyl m-nitrophenyl disulphide] the zone of inhibition at 10 µg/disc (Aspergillus flavus; Aspergillus flavus, 10 μg/disk, acetone) was 1.8 mm and the zone of inhibition at 10 µg/disc (Aspergillus niger; Aspergillus niger, 10 μg/disk, acetone) was 1.7 mm.
CCC(=O)OCSSC [CH3CH2C(O)OCH2SSCH3, 2,3-dithiabutyl propionate] showed a zone of inhibition at 25 µg/disc (Aspergillus flavus; [2]) of 7.6 mm and a zone of inhibition at 25 µg/disc (Aspergillus niger; [3]) of 14.8 mm.
CSCSSCSC [(CH3SCH2S)2, reference compound] was tested, and the “Diameter (mm) of clear Zone A. flavus” value (Aspergillus flavus; 100 μg/disk, acetone) was 2.3 mm and the “Diameter (mm) of clear Zone A. niger” value (Aspergillus niger; 100 μg/disk, acetone) was 2.5 mm.
CS(=O)(=O)c1ccc(SSc2ccc(S(C)(=O)=O)cc2)cc1 [[p-CH3SO2(C6H4)S]2, p-methylsulfonylphenyl disulphide] gave a zone of inhibition at 25 µg/disc (Aspergillus flavus; [2]) of 6.9 mm and a zone of inhibition at 25 µg/disc (Aspergillus niger; [3]) of 4 mm.
With CS(=O)(=O)Sc1ccc([N+](=O)[O-])cc1 [p-CH3SO2S(C6H4)NO2, p-Nitrophenyl Methanethiosulfonate] the “Diameter (mm) of clear Zone A. flavus” value (Aspergillus flavus; 25 μg/disk, acetone) was 1.2 mm and the “Diameter (mm) of clear Zone A. niger” value (Aspergillus niger; 25 μg/disk, acetone) was 1.9 mm.
Cc1ccc(S(=O)(=O)Sc2ccc([N+](=O)[O-])cc2)cc1 [p-CH3(C6H4)SO2S(C6H4)NO2—p, p-Nitrophenyl p-Toluenethiosulfonate] was tested, and the “Diameter (mm) of clear Zone A. flavus” value (Aspergillus flavus; 25 μg/disk, acetone) was 2.0 mm and the “Diameter (mm) of clear Zone A. niger” value (Aspergillus niger; 25 μg/disk, acetone) was 3.0 mm.
CCC(=O)OCSSCC(=O)OC [CH3OC(O)CH2SSCH2OC(O)C2H5, methyl 3,4-dithia-5-propionoxypentanoate] was tested, and the zone of inhibition at 0.25 µg/disc (Aspergillus flavus; Aspergillus flavus, 0.25 μg/disk, Appl'n Solvent Acetone) was 2.3 mm, the zone of inhibition at 0.25 µg/disc (Aspergillus flavus; Aspergillus flavus, 0.25 μg/disk, Appl'n Solvent DMSO) was 7.9 mm and the zone of inhibition at 0.25 µg/disc (Aspergillus niger; Aspergillus niger, 0.25 μg/disk, Appl'n Solvent Acetone) was 3 mm. The zone of inhibition at 0.25 µg/disc (Aspergillus niger; Aspergillus niger, 0.25 μg/disk, Appl'n Solvent DMSO) was 11.7 mm.
Cc1ccc(S(=O)(=O)CS)cc1 [p-CH3(C6H4)SO2CH2SH, α-p-toluenesulfonyl methyl mercaptan] was tested, and the “Diameter (mm) of clear Zone A. flavus” value (Aspergillus flavus; 100 μg/disk, acetone) was 0 mm and the “Diameter (mm) of clear Zone A. niger” value (Aspergillus niger; 100 μg/disk, acetone) was 0 mm.
CS(=O)(=O)Oc1ccc([N+](=O)[O-])cc1 [p-O2N(C6H4)OSO2CH3, p-nitrophenyl methanesulfonate] showed a zone of inhibition at 100 µg/disc (Aspergillus flavus; [4]) of 0 mm and a zone of inhibition at 100 µg/disc (Aspergillus niger; [5]) of 0 mm.
For CCSSCS(C)(=O)=O [CH3SO2CH2SSCH2CH3, 2,4,5-trithiaheptane 2,2,-dioxide], the “Diameter (mm) of clear Zone A. flavus” value (Aspergillus flavus; 25 μg/disk, acetone) was 3.3 mm and the “Diameter (mm) of clear Zone A. niger” value (Aspergillus niger; 25 μg/disk, acetone) was 4.8 mm.
CSSc1ccccc1 [Compound C6H5SSCH3, phenyl methyl disulphide] was tested, and the zone of inhibition at 100 µg/disc (Aspergillus flavus; [4]) was 0 mm, the zone of inhibition at 100 µg/disc (Aspergillus niger; [5]) was 0 mm and the “Antifungal activity / fungitoxicity” value ([1]; 100 μg/disk) was “no observable fungitoxicity”.
With “1-p-toluenesulfonyl-4-propionoxy-2,3-dithiabutane [C2H5OC(O)CH2SSCH2SO2(C6H4)—p-CH3]” the “Diameter (mm) of clear Zone A. flavus” value (Aspergillus flavus; [6]) was 5.2 mm and the “Diameter (mm) of clear Zone A. niger” value (Aspergillus niger; [6]) was 8.5 mm.
With “o-Carbomethoxyphenyl Methanethiosulfonate [o-CH3SO2S(C6H4)CO2CH3]” the “Diameter (mm) of clear Zone A. flavus” value (Aspergillus flavus; 100 μg/disk, acetone) was 0 mm and the “Diameter (mm) of clear Zone A. niger” value (Aspergillus niger; 100 μg/disk, acetone) was 0 mm.
In the case of O=S(=O)(Sc1ccccc1)c1ccccc1 [(C6H5)SO2S(C6H5)], the “Diameter (mm) of clear Zone A. flavus” value (Aspergillus flavus; 25 μg/disk, acetone) is reported as 3.8 mm and the “Diameter (mm) of clear Zone A. niger” value (Aspergillus niger; 25 μg/disk, acetone) is reported as 3.9 mm.
With CS(=O)(=O)Oc1ccc(S(C)(=O)=O)cc1 [p-CH3SO2(C6H4)OSO2CH3, p-methylsulfonylphenyl methanesulfonate] the zone of inhibition at 100 µg/disc (Aspergillus flavus; [4]) was 0 mm and the zone of inhibition at 100 µg/disc (Aspergillus niger; [5]) was 0 mm.
For CSSCS(C)(=O)=O [CH3SO2CH2SSCH3, α-methylsulfonyl dimethyl disulphide], the “Diameter (mm) of clear Zone A. flavus” value (Aspergillus flavus; 25 μg/disk, acetone) was 3.8 mm and the “Diameter (mm) of clear Zone A. niger” value (Aspergillus niger; 25 μg/disk, acetone) was 2.7 mm.
In the case of CSSCS(=O)(=O)c1ccccc1 [C6H5SO2CH2SSCH3, α-phenylsulfonyl dimethyl disulphide], the “Diameter (mm) of clear Zone A. flavus” value (Aspergillus flavus; 25 μg/disk, acetone) is reported as 4.2 mm and the “Diameter (mm) of clear Zone A. niger” value (Aspergillus niger; 25 μg/disk, acetone) is reported as 5.5 mm.
For COC(=O)c1ccccc1SSC [o-CH3OC(O)(C6H4)SSCH3, methyl-o(methyldithio)benzoate], the “Diameter (mm) of clear Zone A. flavus” value (Aspergillus flavus; 25 μg/disk, acetone) was 4.3 mm and the “Diameter (mm) of clear Zone A. niger” value (Aspergillus niger; 25 μg/disk, acetone) was 2.8 mm.
Compound CSSCCOC(C)=O [CH3SSCH2CH2OC(O)CH3, 3,4-dithiapentyl acetate] has a zone of inhibition at 100 µg/disc (Aspergillus flavus; [4]) of 0 mm and a zone of inhibition at 100 µg/disc (Aspergillus niger; [5]) of 0 mm.
“Methyl methanethiosulfonate [CH3SO2SCH3]” was tested, and the “Diameter (mm) of clear Zone A. flavus” value (Aspergillus flavus; 100 μg/disk, acetone) was 0 mm, the “Diameter (mm) of clear Zone A. niger” value (Aspergillus niger; 100 μg/disk, acetone) was 3.3 mm and the Antifungal activity [1] was “effective against only one of the test fungi”.
Work on CSSCOC(=O)c1ccccc1 [CH3SSCH2OC(O)Ph, 2,3-dithiabutyl benzoate] yielded a zone of inhibition at 25 µg/disc (Aspergillus flavus; [2]) of 8.4 mm and a zone of inhibition at 25 µg/disc (Aspergillus niger; [3]) of 6.1 mm.
With CCS(=O)(=O)SC [CH3CH2SO2SCH3, Methyl Ethanethiosulfonate] the “Diameter (mm) of clear Zone A. flavus” value (Aspergillus flavus; 50 μg/disk, acetone) was 1.3 mm and the “Diameter (mm) of clear Zone A. niger” value (Aspergillus niger; 50 μg/disk, acetone) was 2.0 mm.
Cc1ccc(S(=O)(=O)Sc2ccccc2)cc1 [p-CH3(C6H4)SO2S(C6H5)] was tested, and the “Diameter (mm) of clear Zone A. flavus” value (Aspergillus flavus; 25 μg/disk, acetone) was 3.3 mm and the “Diameter (mm) of clear Zone A. niger” value (Aspergillus niger; 25 μg/disk, acetone) was 4.3 mm.
For CSS(=O)(=O)c1ccc(C)cc1 [p-CH3(C6H4)SO2SCH3], the “Diameter (mm) of clear Zone A. flavus” value (Aspergillus flavus; 25 μg/disk, acetone) was 3.6 mm and the “Diameter (mm) of clear Zone A. niger” value (Aspergillus niger; 25 μg/disk, acetone) was 1.4 mm.
In the case of CSSC [CH3SSCH3, dimethyl disulphide], the “Diameter (mm) of clear Zone A. flavus” value (Aspergillus flavus; 100 μg/disk, acetone) is reported as 0 mm, the “Diameter (mm) of clear Zone A. niger” value (Aspergillus niger; 100 μg/disk, acetone) is reported as 0 mm and the Antifungal activity [1] is reported as “no antifungal behaviour”.
COC(=O)CSS(=O)(=O)c1ccc(C)cc1 [p-CH3(C6H4)SO2SCH2CO2CH3, Carbomethoxymethyl p-Toluenethiosulfonate] was tested, and the “Diameter (mm) of clear Zone A. flavus” value (Aspergillus flavus; 50 μg/disk, acetone) was 1.7 mm and the “Diameter (mm) of clear Zone A. niger” value (Aspergillus niger; 50 μg/disk, acetone) was 2.9 mm.
CSCS(C)(=O)=O [CH3SO2CH2SCH3, 2,4-dithiapentane 2,2-dioxide] gave a zone of inhibition at 100 µg/disc (Aspergillus flavus; [4]) of 0 mm and a zone of inhibition at 100 µg/disc (Aspergillus niger; [5]) of 0 mm.

— patent US20030220524A1, “Sulfur containing compounds” (priority 2000, published 2003)
